Calls of active or inactive are those of the source. The rule behind the calls is not given here.
Tests used:
Mus musculus [1] = experiment: Inhibition of anti-CD3 antibody-induced IL2 production in Balb/c mouse dosed intravenously 5 mins before anti-CD3 antibody injection and measured 2 hrs post-challenge by ELISA; assay type: functional, organism-based
Mus musculus [2] = experiment: Inhibition of anti-CD3 antibody-induced IL4 production in Balb/c mouse dosed intravenously 5 mins before anti-CD3 antibody injection and measured 2 hrs post-challenge by ELISA; assay type: functional, organism-based
Mus musculus [3] = experiment: Inhibition of anti-CD3 antibody-induced IFNgamma production in Balb/c mouse dosed intravenously 5 mins before anti-CD3 antibody injection and measured 2 hrs post-challenge by ELISA; assay type: functional, organism-based
[4] = biological target: T1, Dual specificity mitogen-activated protein kinase kinase 7 (Homo sapiens, UniProt O14733); experiment: Inhibition of GST-tagged human MKK7 expressed in Escherichia coli (BL21(DE3) pLysS) co-expressing human MEKK catalytic domain using biotinylated and GST-tagged rat GST-KN-SAPKalpha substrate incubated for 1 hr by time-resolved fluorescence based assay
T1 sequence (O14733 whole entry): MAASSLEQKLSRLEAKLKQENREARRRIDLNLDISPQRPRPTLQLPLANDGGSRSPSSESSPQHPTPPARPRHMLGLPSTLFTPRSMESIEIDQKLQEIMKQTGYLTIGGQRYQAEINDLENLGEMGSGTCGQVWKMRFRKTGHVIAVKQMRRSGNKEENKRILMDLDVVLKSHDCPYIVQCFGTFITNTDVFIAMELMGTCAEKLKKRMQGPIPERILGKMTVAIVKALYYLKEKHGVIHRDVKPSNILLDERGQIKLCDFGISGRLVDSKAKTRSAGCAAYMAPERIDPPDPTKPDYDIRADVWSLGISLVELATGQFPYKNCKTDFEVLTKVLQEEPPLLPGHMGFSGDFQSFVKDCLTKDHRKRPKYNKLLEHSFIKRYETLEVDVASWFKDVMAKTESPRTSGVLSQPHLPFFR

SMILES	Activity (Mus musculus [1])	Activity (Mus musculus [2])	Activity (Mus musculus [3])	IC50 [4] [nM]
N#Cc1ccc2[nH]c3ncnc(-c4ccccc4)c3c2c1	Active	Active	Active	
N#Cc1ccc2[nH]c3nc(N)nc(-c4ccccc4)c3c2c1	Active	Active	Active	
COc1ccc(-c2ncnc3[nH]c4ccc(C#N)cc4c23)cc1	Active	Active	Active	
COc1ccc(-c2ncnc3[nH]c4ccc(C(N)=O)cc4c23)cc1	Active	Active	Active	
Oc1ccc2[nH]c3ncnc(-c4ccccc4)c3c2c1	Active	Active	Active	≤ 1000
COc1ccc(-c2ncnc3[nH]c4ccc(O)cc4c23)cc1	Active	Active	Active	≤ 1000
N#Cc1ccc2[nH]c3ncnc(-c4ccc(F)cc4)c3c2c1	Active	Active	Active	
NC(=O)c1ccc2[nH]c3ncnc(-c4ccccc4)c3c2c1	Active	Active	Active	≤ 1000
N#Cc1ccc2[nH]c3ncnc(-c4cccc(N)c4)c3c2c1	Active	Active	Active	
COc1ccc(-c2ncnc3[nH]c4ccc(OC)cc4c23)cc1	Active	Active	Active	
COc1ccc2[nH]c3ncnc(-c4ccccc4)c3c2c1	Active	Active	Active	
CN(C)c1ccc(-c2ncnc3[nH]c4ccc(C(N)=O)cc4c23)cc1	Active	Active	Active	1000
NC(=O)c1ccc2[nH]c3nc(N)nc(-c4ccccc4)c3c2c1	Active	Active	Active	≤ 1000
Oc1ccc2[nH]c3ncnc(-c4ccc(F)cc4)c3c2c1	Active	Active	Active	≤ 1000
NC(=O)c1ccc2[nH]c3ncnc(-c4ccc(F)cc4)c3c2c1	Active	Active	Active	≤ 1000
CN(C)c1ccc(-c2ncnc3[nH]c4ccc(C#N)cc4c23)cc1	Active	Active	Active	
NC(=O)c1ccc2[nH]c3ncnc(-c4cccc(N)c4)c3c2c1	Active	Active	Active	

Source: ChEMBL document CHEMBL3714713, “4-phenyl-pyrimido [4,5-b] indole derivatives” (2004)
